The results in this text go back to DBAASP.

Structures are written as SMILES. Values after ≈ are worked out from the molar mass of the structure shown. Where only a bound is given, the exact number is not on record here.

Test systems include Escherichia coli C600; Candida krusei ATCC 6258; Escherichia coli SBS 363; Escherichia coli D31.
Assay in all cases: ≥ marks a high value that may be exact or a test limit, other limits are often not marked, values filed in µg/mL are converted to µM
Assay [1] concerns Bacillus subtilis VKM B-501.
The subject of assay [2] is Staphylococcus aureus 209P.
Assay [3] relates to Escherichia coli ATCC 25922.
Assay [4] has as its system Staphylococcus aureus ATCC 25923.
Assay [5] deals with Pseudomonas aeruginosa ATCC 27853.
Assay [6] has as its system Listeria monocytogenes EGD.
Assay [7] deals with Enterococcus faecalis ATCC 51575.
Assay [8] relates to Escherichia coli KCTC 1682.
Assay [9] relates to Pseudomonas aeruginosa KCTC 1637.
Assay [10] has as its system Salmonella typhimurium KCTC 1926.
For assay [11], the system named is Staphylococcus epidermidis KCTC 1917.
The subject of assay [12] is Enterococcus faecium KCCM 12118.
Assay [13] has as its system Staphylococcus aureus KCTC 1621.
Assay [14] deals with Staphylococcus aureus KCCM 40510.
Assay [15] has as its system Enterococcus faecalis KCCM 29212.
The subject of assay [16] is Enterococcus faecium ATCC 51559.
For assay [17], the system named is Bacillus subtilis KCTC 3068.
Assay [18] relates to Candida albicans ATCC 2048.
Assay [19] has as its system Candida tropicalis ATCC 20240.
Assay [20] has as its system Candida parapsilosis ATCC 20224.
Assay [21] concerns Candida glabrata ATCC 90525.
The subject of assay [22] is Escherichia coli DH5alpha.
In assay [23] the test system is Bacillus subtilis TISTR 1248.
Assay [24] has as its system Pseudomonas aeruginosa TISTR 1287.
Assay [25] has as its system Candida albicans TISTR 5554.
Assay [26] has as its system Bacillus megaterium TISTR 067.
Assay [27] relates to Staphylococcus aureus TISTR 746.
For assay [28], the system named is Salmonella typhimurium TISTR 1472.
Assay [29] deals with Edwardsiella tarda DMST 38217.
Assay [30] relates to Aeromonas hydrophila TISTR 1321.
Assay [31] concerns Salmonella enterica subsp. enterica serovar Derby DMST 16881.
In assay [32] the test system is Enterococcus faecalis TISTR 927.
Assay [33] has as its system Bacillus cereus TISTR 1449.
The test system of assay [34] is Pseudomonas aeruginosa PA14.
The subject of assay [35] is Enterobacter cloacae beta-12.

Turning to `CSCC[C@H](NC(=O)[C@H](CCCCN)NC(=O)CN)C(=O)N[C@@H](CCCCN)C(=O)N[C@@H](CCC(=O)O)C(=O)N[C@@H](Cc1ccc(O)cc1)C(=O)N[C@@H](Cc1ccccc1)C(=O)N[C@@H](CCCCN)C(=O)N[C@@H](CCCCN)C(=O)N[C@@H](Cc1ccccc1)C(=O)NCC(=O)N[C@@H](C)C(=O)N[C@@H](CO)C(=O)N[C@@H](Cc1ccccc1)C(=O)N[C@@H](CCCCN)C(=O)N[C@@H](CCCN=C(N)N)C(=O)N[C@@H](CCCN=C(N)N)C(=O)N[C@@H](Cc1ccccc1)C(=O)N[C@@H](C)C(=O)N[C@@H](CC(N)=O)C(=O)N[C@@H](CC(C)C)C(=O)N[C@@H](CCCCN)C(=O)N[C@@H](CCCCN)C(=O)N[C@@H](CCCN=C(N)N)C(=O)N[C@@H](CC(C)C)C(N)=O` [GKMKEYFKKFGASFKRRFANLKKRL], the values for the MIC (in assay [1]; in the assay with Escherichia coli C600; in assay [2]) were 0.7 µM (≈ 2.16 µg/mL), 1.5 µM (≈ 4.62 µg/mL) and 3 µM (≈ 9.24 µg/mL), respectively.
Take `CC[C@H](C)[C@H](NC(=O)[C@H](C)NC(=O)CNC(=O)[C@H](CCCCN)NC(=O)[C@@H](NC(=O)[C@H](CC(C)C)NC(=O)[C@H](C)NC(=O)[C@H](CC(C)C)NC(=O)[C@@H](NC(=O)[C@@H](NC(=O)[C@H](Cc1ccc(O)cc1)NC(=O)[C@@H](NC(=O)[C@H](Cc1ccccc1)NC(=O)[C@H](CCCCN)NC(=O)[C@H](CCCCN)NC(=O)[C@@H](N)CCCCN)[C@@H](C)CC)[C@@H](C)CC)C(C)C)[C@@H](C)CC)C(=O)N[C@H](C(=O)N[C@@H](CCCCN)C(=O)N[C@@H](CCCCN)C(=O)NCC(N)=O)[C@@H](C)CC` [KKKFIYIVLALIKGAIIKKG]: the MIC (in general, the least concentration at which growth counts as inhibited) in [3] was 32 µM (≈ 71.8 µg/mL); in assay [4], 64 µM (≈ 144 µg/mL); in assay [5] it was 64 µM (≈ 144 µg/mL); in [6] it was at least 32 µM.
With `CC[C@H](C)[C@H](NC(=O)[C@H](CC(C)C)NC(=O)[C@H](CC(C)C)NC(=O)[C@@H](N)CC(C)C)C(=O)N[C@@H](C)C(=O)N[C@@H](CC(C)C)C(=O)N[C@@H](CCCN=C(N)N)C(=O)N[C@@H](CCCCN)C(=O)N[C@@H](CCCCN)C(N)=O` [LLLIALRKK], the MIC is 7.49 µM (≈ 7.99 µg/mL) in assay [7]; 3.75 µM (≈ 4 µg/mL) in assay [8]; 3.75 µM (≈ 4 µg/mL) in assay [9]; 1.87 µM (≈ 2 µg/mL) in assay [10]; 1.87 µM (≈ 2 µg/mL) in assay [11]; 3.75 µM (≈ 4 µg/mL) in [12]. Besides, the MIC in [13] was determined as 3.75 µM (≈ 4 µg/mL); in assay [14], 3.75 µM (≈ 4 µg/mL); in assay [15], 3.75 µM (≈ 4 µg/mL); in assay [16] it was 1.87 µM (≈ 2 µg/mL); in [17], 3.75 µM (≈ 4 µg/mL).
For the compound `CC(C)C[C@H](NC(=O)[C@H](C)NC(=O)[C@H](CC(C)C)NC(=O)[C@H](CC(=O)O)NC(=O)[C@H](CCC(N)=O)NC(=O)[C@@H](N)CC(C)C)C(=O)N[C@@H](CCC(N)=O)C(=O)NCC(=O)N[C@@H](C)C(=O)N[C@@H](CCCCN)C(=O)N[C@@H](CCC(=O)O)C(=O)N[C@@H](CCCN=C(N)N)C(=O)N[C@@H](C)C(=O)N[C@@H](Cc1cnc[nH]1)C(=O)N[C@@H](CCC(N)=O)C(=O)N[C@@H](CCC(N)=O)C(=O)O` [LQDLALQGAKERAHQQ], the MIC in assay [18] was at least 380 µM; in assay [19], at least 410 µM; in assay [20], at least 320 µM; against Candida krusei ATCC 6258 it was at least 380 µM; in assay [21], at least 280 µM.
`CC(C)C[C@H](NC(=O)[C@H](CCCCN)NC(=O)[C@@H](NC(=O)[C@H](CO)NC(=O)[C@H](Cc1ccccc1)NC(=O)[C@H](CC(C)C)NC(=O)[C@H](Cc1c[nH]c2ccccc12)NC(=O)[C@@H](NC(=O)[C@H](CS)NC(=O)[C@H](CC(N)=O)NC(=O)[C@@H](N)CCCN=C(N)N)[C@@H](C)O)[C@@H](C)O)C(=O)N[C@@H](CCCCN)C(=O)N[C@@H](CC(C)C)C(=O)N1CCC[C@H]1C(=O)N[C@@H](C)C(=O)O` [RNCTWLFSTKLKLPA]: the MIC in assay [22] is at least 112 µM; in [23] it was 14.1 µM (≈ 25 µg/mL); in assay [3], 112 µM (≈ 200 µg/mL); in assay [24], at least 225 µM; in assay [25] it was at least 225 µM; in [26], 7.03 µM (≈ 12.5 µg/mL). Moreover, the MIC was at least 225 µM in assay [27]; at least 225 µM in assay [28]; at least 225 µM in assay [29]; 225 µM (≈ 400 µg/mL) in assay [4]; at least 225 µM in assay [30]; at least 225 µM in assay [31]. The MIC in assay [32] was at least 56.2 µM; in assay [33], at least 225 µM.
For the compound `CC[C@H](C)[C@H](NC(=O)[C@H](CC(=O)O)NC(=O)[C@H](CC(=O)O)NC(=O)[C@H](CC(N)=O)NC(=O)CNC(=O)[C@H](CO)NC(=O)[C@H](Cc1ccccc1)NC(=O)[C@H](CC(=O)O)NC(=O)[C@@H](NC(=O)CNC(=O)[C@@H](N)C(C)C)[C@@H](C)O)C(=O)N[C@@H](CO)C(=O)N[C@@H](CC(=O)O)C(=O)N[C@H](C(=O)N[C@@H](CCC(N)=O)C(=O)N[C@@H](CCCCN)C(=O)O)C(C)C` [VGTDFSGNDDISDVQK], the MIC in assay [34] was found to be 4.6 µM (≈ 7.81 µg/mL); in the assay on Escherichia coli SBS 363, 4.6 µM (≈ 7.81 µg/mL); in [35], 2.3 µM (≈ 3.9 µg/mL); in assay [5], 1.15 µM (≈ 1.95 µg/mL); against Escherichia coli D31, 4.6 µM (≈ 7.81 µg/mL).
